Measurements published in patent EP1671630A2, “L-Arginine based formulations for treating diseases and methods of using the same” (Angiogenix, Inc., priority 1999, dated 2000).
Where two headings read alike, the source gives them in different places.

Key:
[1] = test system: y^+ transporter; assay: Cellular uptake of [3H]-L-arginine via y+ transport in the presence of NOS agonists and NO donors; type: cell-based, bovine; settings: for maximum inhibition of LA transport: Fig. 8; for inhibition of LA transport: data not shown; for increase of [^3H]-LA uptake / increase of LA uptake: Ach 5 µM
Method: Characterization of L-arginine transport system in bovine aortic endothelial cells. […] Prior to experiments, cells were split 1:4, transferred into 24 well plates, and allowed to grow to confluency. […] CaCl2, 1.8 mM; KCl 5.4 mM, choline 140 mM; […] Uptake of LA was terminated by addition of ice cold buffer and cells were washed three times with 1 ml of buffer. […] Cellular uptake of LA via B^α+ system was determined by substituting sodium chloride for choline and incubating as described above. The difference in uptake determined for both transporters and that observed for y+ alone represented the amount of LA uptake contributed by sodium-dependent B^α+ system. […] It has been previously reported that passive, non-saturable diffusion of LA can occur but only when extracellular levels of LA are within the millimolar concentration. […] Uptake of LA was terminated and total cellular transport of LA determined as described above.

[2] = biological target: T1, nitric oxide synthase (NOS) (Bos taurus, UniProt P29473); assay: NO production in cultured endothelial cells (oxyhemoglobin to methemoglobin conversion and NO sensitive electrode); type: cell-based, bovine
T1 construct: DOX activity as a NOS agonist was investigated in cultured bovine aortic EC; endogenous in cells; host or cells: cultured bovine aortic endothelial cells
Description: Doxazosin, a selective alpha-1 blocker, is pharmacologically similar to prazosin and terazosin. It has been shown that selective alpha-1 blockers lower total and LDL cholesterol. Thus, these selective alpha-1 blockers may be useful in treating both hypertension and hypercholesterolemia. […] In fact, a wide variety of vasoactive agents (e.g. bradykinin, muscarinic agonists and growth factors) which increase tPA levels are also agonists of nitric oxide synthase (NOS). DOX activity as a NOS agonist was investigated in cultured bovine aortic EC using two methods to assess NO production: conversion of oxyhemoglobin to methamoglobin and a NO sensitive electrode. […] This increase in NO to DOX (10^-6 M) was blocked by 72% by prior administration of the NOS inhibitor, L-NAME (5 x 10^-4 M). In addition, the NO responses were accentuated by the presence of supplemental L-arginine (5 x 10^-4 M) by 65%. […] This increase in NO to ACH (10^-6 M) was blocked by 86% by prior administration of L-NAME. In addition, the NO responses were accentuated by 72% in the presence of supplemental L-arginine. DOX, therefore, appears to be a NOS agonist in EC.
For all experiments, human coronary artery endothelial cells (passage 3-5 - Clonetics) were maintained at 37°, […] and 5% CO2 in Medium 199 (M199) supplemented with 5% fetal bovine serum (FBS, Hyclone), 10% iron supplemented FBS (Hyclone), thymidine (100mg mL^-1), penicillin G (100U mL^-1) and streptomycin (100µg mL^-1).
In all experiments, the effects of pretreatment with L-NAME (10^-3 M) in blocking the actions of DOX, and excess L-arginine (10^-3 M) in reversing any L-NAME effect was examined. Acetylcholine, an eNOS agonist, was used in all experiments as the positive control at concentrations of 10^-7 and 10^-6 M.
Methemoglobin - The effect of DOX on NO production in EC was determined using a photometric assay for conversion of oxyhemoglobin to methemoglobin. For this assay, EC grown to confluency on microcarrier beads are placed into a water-jacketed chromatography column and superfused with a Kreb's-Ringer buffer containing 3 µM oxyhemoglobin and 50 µM LA (L-arginine). Perfusate is then directed into a flow-through cuvette in a dual wavelength spectrophotometer and change in absorbancy (415/405 nm) is measured. Experimental stimulation was carried out by 3 min infusion periods of DOX added to buffer perfusion to yield final concentrations of 10^-7 and 10^-6 M. For analysis, we determined the area under the curve for the change in absorbancy response/min caused by DOX assuming a one to one correspondence for NO and metHb production, the known stoichiometric balance for this reaction. No electrode - NO production was measured with a NO meter connected to a polargraphic NO electrode as previously described. The NO sensor probe will be inserted vertically into 24-well plates containing confluent EC such that the tip of the electrode is submerged 2 mm under the surface of medium (above - 1ml). The reaction was initiated when desired concentrations of DOX are added to the well. Calibrations were performed with S-nitroso-acetyl-penicillamine.

[3] = test system: bovine aortic endothelial cells (BAEC); assay: Cellular superoxide anion formation (SOD-inhibitable reduction of ferricytochrome C); type: cell-based; settings: for inhibition of O2^•- production induced by A-23187: 5 × 10^-4M, A-23187 1 µM; for inhibition at 500 µM: Bos taurus, BAEC
Method: Cellular superoxide anion formation in the presence of NOS agonists. […] After reaching confluency, cells were washed 3 times (3 ml) with Dulbecco's phosphate buffered saline (DPBS) and 2 coverslips were placed in a disposable plastic cuvette facing each other. DPBS (1.8 ml) was gently placed in cuvette in addition to ferricytochrome C (final concentration, 50 µmol/L). […] Change in absorbance over time was determined and the amount of superoxide anion [ε=[…]] generated was determined over time and reported as pmoles O2^•-/min./10^6 cells.

[4] = cited from earlier work
[5] = test system: Bovine aortic EC; assay: LA transport after exposure to homocysteine and its thiolactone; type: cell-based
Description: A third aspect of the present invention is the treatment, prevention, or amelioration of homocysteinemia with L-arginine alone. Hyperhomocysteinemia is associated with vascular EC dysfunction and increased risk for atherosclerosis and atherothrombosis. Free radical formation during homocyst(e)ine auto-oxidation has been implicated in its vascular toxicity. Long-term EC exposure to homocyst(e)ine limits nitric oxide synthase (NOS) activity, increasing EC vulnerability to oxidative injury (Stamler et al., 1993). To see whether these effects could be due to alterations in cellular availability of the NOS substrate LA, we tested the effects on LA transport of D,L-homocysteine (DLH) and an auto-oxidation product, L-homocysteine thiolactone (LHT). Bovine aortic EC were exposed to DLH and LHT (1.1-5 mM) for 6 and 24 hours and then incubated with […] [^3H]-LA for 1 min. Cells were washed with ice cold buffer, lysed in 0.5% SDS in 0.1 N NaOH and radioactivity was determined. DLH increased LA uptake in a concentration dependent manner at 6 hr. […] However, after 24 hr. exposure LA uptake was decreased (25-40%).

[6] = read-out: reduced O2· induced by SP

NCCCN(CCCN)/[N+]([O-])=N/O [DPTA-NONOate, dipropylenetriamine NONOate]
maximum inhibition of LA transport ([1]; 0.01 µM DPTA, 2 hour exposure): 20% | effect on y^+ system ([1]; 1 µM DPTA-NONOate (2 µM NO), 15 and 30 min): no significant effect | inhibition of LA transport ([1]; 1 µM DPTA-NONOate (2 µM NO), 1 hour exposure): 22% | inhibition of LA transport ([1]; 1 µM DPTA-NONOate (2 µM NO), 2 hour exposure): 24% | inhibition of LA transport ([1]; 1 µM DPTA-NONOate (2 µM NO), 4 hour exposure): 29% | maximum inhibition of LA transport ([1]; 1 µM DPTA, 2 hour exposure): 24% | maximum inhibition of LA transport ([1]; 10 µM DPTA, 2 hour exposure): 44%

COC(=O)[C@@H](N)CCCN=C(N)N[N+](=O)[O-] [L-NAME, n-ω-nitro-L-arginine methyl ester]
increase in NO blocked by prior administration of L-NAME ([2]; NO response to ACH 10^-6 M): 86% | inhibition at 500 µM ([2]; read-out: increase in NO blocked by prior administration of L-NAME): 72% | inhibition of O2^•- production induced by A-23187 [3]: 58% | inhibition at 500 µM ([3]; 1 h, read-out: prevented basal production of O2^•-): 100% | inhibition at 500 µM [3, 6]: 81%

COc1cc2nc(N3CCN(C(=O)C4COc5ccccc5O4)CC3)nc(N)c2cc1OC (stereo not shown) [DOX, Doxazosin]
dose-related increase in NO production ([2]; DOX 10^-7 - 10^-5 M, cultured bovine aortic EC): 64-145%

CNc1ccc2oc(C[C@H]3O[C@@]4(CC[C@H]3C)O[C@H]([C@H](C)C(=O)c3ccc[nH]3)[C@H](C)C[C@H]4C)nc2c1C(=O)O [A-23187]
increased O2· production above basal levels [3]: 2.5 fold

bradykinin (RPPGFSPFR; Bradykinin; UniProt P01042 381-389, looked up) [BK]
increase of cellular transport of LA ([1]; BK 1αM, 15 minute exposure (maximum)): 42% | increase of cellular transport of LA ([1]; BK 1αM, 30 minutes): 39% | increase of cellular transport of LA ([1]; BK 1αM, 60 minutes): 16% | enhanced cellular uptake of LA ([1]; BK 1αM, 2 hour exposure): 38% | increase in transport of LA ([1]; BK 1αM, 3 hour exposure): 19% | increase in transport of LA ([1]; BK 1αM, 5 hour exposure): 22%

CC(=O)OCC[N+](C)(C)C [Acetylcholine, acetylcholine]
increase of [^3H]-LA uptake ([1]; 2 minute exposure): 22% | increase of [^3H]-LA uptake ([1]; 15 minute (maximum)): 27% | increase of LA uptake ([1]; 30 minutes): 16% | increase of LA uptake ([1]; 60 minutes): 15.5%

CC(=O)N[C@H](C(=O)O)C(C)(C)SN=O [SNAP, S-nitroso-acetyl-penicillamine]
t1/2 of NO donation [4]: ~ 10 minutes | increased activity of the Y^+ transporter ([1]; 200 µM SNAP (0.4 µM NO), ten minutes of exposure): 37% | elevation of Y^+ transporter activity ([1]; 200 µM SNAP, 30 minute exposure): not seen | uptake of [^3H]-LA reduced ([1]; 200 µM SNAP, 1 hour): 22% | reduction of uptake of [^3H]-LA ([1]; 200 µM SNAP, 2 hour exposure): 46% | reduction of uptake of [^3H]-LA ([1]; 200 µM SNAP, 3 hour exposure): 45% | reduction of uptake of [^3H]-LA ([1]; 200 µM SNAP, 5 hour exposure): 36%

N=C(N)NCCC[C@H](N)C(=O)O [L-arginine]
NO responses accentuated by supplemental L-arginine ([2]; NO responses to DOX, L-arginine 5 x 10^-4 M): 65% | NO responses accentuated in the presence of supplemental L-arginine ([2]; NO responses to acetylcholine): 72% | inhibition of O2^•- production induced by A-23187 [3]: 60% | inhibition at 500 µM [3, 6]: 51% | prevention of basal production of O2^•- ([3]; LA 5 x 10^-4M, basal): not

N[C@H]1CCSC1=O [LHT, L-homocysteine thiolactone]
LA transport ([5]; after 6 and 24 hrs exposure, 1.1-5 mM): dose-related decrease

CSCC[C@H](NC(=O)[C@H](CC(C)C)NC(=O)CNC(=O)[C@H](Cc1ccccc1)NC(=O)[C@H](Cc1ccccc1)NC(=O)[C@H](CCC(N)=O)NC(=O)[C@H](CCC(N)=O)NC(=O)[C@@H]1CCCN1C(=O)[C@H](CCCCN)NC(=O)[C@@H]1CCCN1C(=O)[C@@H](N)CCCNC(=N)N)C(N)=O [SP, substance P]
increased O2· production above basal levels ([3]; 1 µM, 60 minute period): 3.5 fold | increase of y^+ transport of LA into cells ([1]; SP 1µM, 15 minutes exposure): 24% | increase of y^+ transport of LA into cells ([1]; SP 1µM, 30 minutes): 24% | increase of y^+ transport of LA into cells ([1]; SP 1µM, 60 minutes): 21% | y^+ transporter activity enhanced from control values ([1]; SP 1µM, 2 hour exposure): ≤ 34% | cellular LA increase ([1]; SP 1µM, 3 hour exposure): 27% | cellular LA increase ([1]; SP 1µM, 5 hour exposure): 21%

NC(CCS)C(=O)O (racemic) [DLH, D,L-homocysteine]
LA uptake decreased ([5]; 24 hr. exposure, 1.1-5 mM): 25-40% | activation at 5000 µM ([5]; Bos taurus, 5 mM, 6 hr exposure, read-out: maximum increase of LA uptake): 53%
